Blank lines part the entries; values can stand above or below the compound they belong to.
Tests used:
[1] = Stability study in climate chamber (48-72 h, 40° C./75% RH), form assigned by XRPD; settings: for XRPD Form c: form assigned after the stability studies / XRPD Form b: form assigned after the stability studies: at 40° C./75% RH; for XRPD Form b: form assigned after the stability studies: samples from anti-solvent addition, label = form before stability
Protocol: (§1) Solubility assessment experiments were carried out in a variety of solvents followed by storage in a climate chamber for 48 to 72 hours at 40 degrees centigrade and 75% relative humidity.

[2] = Solubility assessment experiments in organic solvents
Protocol: as §1

[3] = Storage of samples under ambient conditions, form assigned by XRPD; format: physicochemical
[4] = Concentration of saturated AR42 stock solutions (anti-solvent addition crystallization); format: physicochemical; settings: equilibrated 24 hours, filtered
Protocol: Tables 3-5 illustrate anti-solvent addition crystallization experiments conducted on the indicated Form. In this example, saturated solutions of AR42 were prepared in the following solvents: Acetone, 2-Butanone, Methanol, Ethanol, Isopropanol, Acetonitrile, 1,4-Dioxane and Dimethylformamide. Excess AR42 was added to the solvent and the suspension equilibrated for 24 hours. After equilibration, the suspension was filtered through a […] filter to remove particulate solids.
An equal volume of anti-solvent selected from the following list was added to 300 μL of the saturated solutions of AR42: Toluene, Nitrobenzene, Nitromethane, Water, n-Heptane, Cyclohexane. An additional 300 μL of anti-solvent was added if no precipitation occurred. Aliquots of 300 μL of anti-solvent were added until precipitation occurred or the total volume was 1,200 μL of anti-solvent. The solution was allowed to incubate for 60 minutes at room temperature in between the addition of anti-solvent. If no precipitation occurred after the last addition of anti-solvents, samples were incubated for 24 hours at 4° C. Samples in which precipitation occurred were centrifuged for 10 minutes at 3000 rpm to separate the liquid from the solid. The liquid phase was removed and the solid phase dried and analyzed by XRPD. The solutions in which no precipitation occurred were placed under deep vacuum and dried to completion. Solids were collected and analysed by XRPD.

[5] = tested on: tumors; settings: cited from earlier work
[6] = 48-72 H, samples from cooling-evaporative crystallization, Table 6, label = form after recrystallization
[7] = 46-72 H, samples from solvent-drop grinding, Table 8, label = form after grinding
[8] = 1.5-2 weeks ambient, solvent-drop grinding, Table 8, label = form after grinding
[9] = 1-1.5 weeks ambient, cooling-evaporative crystallization, Table 7, label = form after recrystallization
[10] = 48-72 H, samples from cooling-evaporative crystallization, Table 7, label = form after recrystallization
[11] = 1-1.5 weeks ambient, cooling-evaporative crystallization, Table 6, label = form after recrystallization

Compound: CC(C)C(C(=O)Nc1ccc(C(=O)NO)cc1)c1ccccc1 (stereo not drawn) [Form A + Am]
- XRPD Form c: form assigned after the stability studies [1, 6]: Form A + Am*
- Concentration ([2]; Table 1, solvent Amyl Ether): <1000 µg/mL
- XRPD Form b: form assigned after storage under ambient conditions ([3]; 1-1.5 weeks ambient, cooling-evaporative crystallization, Table 6, label = form after recrystallization, experiment ML13, solvent 1 Butyl Acetate): Form U1 + Am*
- XRPD Form b: form assigned after storage under ambient conditions ([3]; 1-1.5 weeks ambient, cooling-evaporative crystallization, Table 6, label = form after recrystallization, experiment ML14, solvent 1 Chlorobenzene): Form A_wet**

Compound: CC(C)[C@H](C(=O)Nc1ccc(C(=O)NO)cc1)c1ccccc1 [Form A_wet]
- XRPD Form c: form assigned after the stability studies [1, 7]: Form A
- XRPD Form b: form assigned after the stability studies ([1]; 48-72 H, Table 3): Form A + Am*
- Concentration ([2]; Table 1, solvent Hexafluorobenzene): <1000 µg/mL
- XRPD Form b: form assigned after storage under ambient conditions ([3]; 1-1.5 weeks ambient, cooling-evaporative crystallization, Table 6, label = form after recrystallization, experiment ML7, solvent 1 Dichloroethane): Form A
- XRPD Form b: form assigned after storage under ambient conditions ([3]; 1-1.5 weeks ambient, cooling-evaporative crystallization, Table 6, label = form after recrystallization, experiment ML8, solvent 1 Fluorbenzene): Form A_wet**
- XRPD Form b: form assigned after storage under ambient conditions ([3]; 1-1.5 weeks ambient, cooling-evaporative crystallization, Table 6, label = form after recrystallization, experiment ML32, solvent 1 Heptane, N-): Form U1 + Am*
- XRPD Form b: form assigned after storage under ambient conditions [3, 8]: Form A_wet**

Compound: CC(C)[C@H](C(=O)Nc1ccc(C(=O)NO)cc1)c1ccccc1 [Form B1_wet]
- XRPD Form c: form assigned after the stability studies ([1]; 48-72 H, samples from slurry conversion, Table 9, label = form after slurry): Form A5a
- Concentration ([2]; Table 2, solvent Isophorone): 243700 µg/mL
- XRPD Form b: form assigned after storage under ambient conditions [3, 9]: Form B1_wet**
- XRPD Form b: form assigned after storage under ambient conditions ([3]; 1-1.5 weeks ambient, slurry conversion, Table 9, label = form after slurry): Form B1

Compound: CC(C)C(C(=O)Nc1ccc(C(=O)NO)cc1)c1ccccc1 (stereo not drawn) [Form A + Form B1]
- XRPD Form c: form assigned after the stability studies [1, 7]: Form A
- XRPD Form c: form assigned after the stability studies [1, 6]: Form A_wet**
- Concentration ([2]; Table 2, solvent Acetone): 108900 µg/mL
- XRPD Form b: form assigned after storage under ambient conditions [3, 11]: Form B1_wet**
- XRPD Form b: form assigned after storage under ambient conditions [3, 8]: Form A_wet**

Compound: CC(C)[C@H](C(=O)Nc1ccc(C(=O)NO)cc1)c1ccccc1 [Form A, (S)—N-hydroxy-4-(3-methyl-2-phenylbutanamido)benzamide]
- XRPD Form c: form assigned after the stability studies [1, 7]: Form A
- XRPD Form b: form assigned after the stability studies ([1]; 48-72 H, Table 3): Form A
- XRPD Form c: form assigned after the stability studies [1, 10]: Form A
- Concentration ([2]; Table 2, solvent Amyl Ether): 18400 µg/mL
- Concentration ([2]; Table 2, solvent Dimethyl-4-heptanone 2,6-): 20300 µg/mL
- Concentration ([2]; Table 2, solvent Hexafluorobenzene): 21400 µg/mL
- Concentration ([2]; Table 2, solvent Nitromethane): 21200 µg/mL
- Concentration ([2]; Table 2, solvent Toluene): 18800 µg/mL
- Concentration ([2]; Table 2, solvent Trifluoroethanol, 2,2,2-): 20600 µg/mL
- XRPD Form b: form assigned after storage under ambient conditions [3, 11]: Form A
- XRPD Form b: form assigned after storage under ambient conditions [3, 9]: Form A
- XRPD Form b: form assigned after storage under ambient conditions ([3]; 1.5-2 weeks ambient, solvent-drop grinding, Table 8, label = form after grinding, ground with a drop of Octanol-1): Form A
- XRPD Form b: form assigned after storage under ambient conditions ([3]; 1.5-2 weeks ambient, solvent-drop grinding, Table 8, label = form after grinding, ground with a drop of Propyl acetate): Form A5a

Compound: CC(C)[C@H](C(=O)Nc1ccc(C(=O)NO)cc1)c1ccccc1 [Am_oily]
- XRPD Form b: form assigned after the stability studies ([1]; 48-72 H, Table 5): Form A
- Concentration ([2]; Table 1, solvent NMP): 482500 µg/mL

Compound: CC(C)C(C(=O)Nc1ccc(C(=O)NO)cc1)c1ccccc1 (stereo not drawn) [Form B1 + Form D1]
- Concentration ([2]; Table 2, solvent Dioxane, 1,4-): 32300 µg/mL

Compound: CC(C)[C@H](C(=O)Nc1ccc(C(=O)NO)cc1)c1ccccc1 [Form C, (S)—N-hydroxy-4-(3-methyl-2-phenylbutanamido)benzamide]
- Concentration ([2]; Table 2, solvent Dimethyl Sulfoxide): 472500 µg/mL

Compound: CC(C)C(C(=O)Nc1ccc(C(=O)NO)cc1)c1ccccc1 (stereo not drawn) [Form A + Form V]
- XRPD Form c: form assigned after the stability studies [1, 7]: Form A
- XRPD Form b: form assigned after storage under ambient conditions [3, 8]: Form A

Continued, in another order:

- XRPD Form c: form assigned after the stability studies [1, 10]: Form B1
- Concentration ([2]; Table 1, solvent Dimethyl-4-heptanone 2,6-): 2000 µg/mL
- Concentration ([2]; Table 2, solvent Chloroform): 20800 µg/mL
- XRPD Form b: form assigned after storage under ambient conditions [3, 9]: Form B1
Compound: CC(C)[C@H](C(=O)Nc1ccc(C(=O)NO)cc1)c1ccccc1 [Form B1, (S)—N-hydroxy-4-(3-methyl-2-phenylbutanamido)benzamide]
- Stability after storage in a climate chamber ([1]; 48 to 72 hours at 40 degrees centigrade and 75% relative humidity): exhibited a particular degree of stability

- Concentration (mg/mL) of saturated stock solution ([4]; stock solvent Acetone): 175.9 mg/mL
- Concentration (mg/mL) of saturated stock solution ([4]; stock solvent Acetonitrile): 13.5 mg/mL
- Concentration (mg/mL) of saturated stock solution ([4]; stock solvent Butanone 2-): 130.7 mg/mL
- Concentration (mg/mL) of saturated stock solution ([4]; stock solvent Dimethylformamide N,N-): 335 mg/mL
- Concentration (mg/mL) of saturated stock solution ([4]; stock solvent Dioxane, 1,4-): 46.8 mg/mL
- Concentration (mg/mL) of saturated stock solution ([4]; stock solvent Ethanol): 134.1 mg/mL
- Concentration (mg/mL) of saturated stock solution ([4]; stock solvent Propanol 2-): 227.8 mg/mL
- Concentration (mg/mL) of saturated stock solution ([4]; stock solvent methanol): 390.5 mg/mL
- Concentration ([2]; Table 1, solvent Chloroform): <2000 µg/mL
- Concentration ([2]; Table 1, solvent Nitromethane): 1000 µg/mL
- Concentration ([2]; Table 1, solvent Toluene): <1000 µg/mL
- Concentration ([2]; Table 1, solvent Trifluoroethanol, 2,2,2-): 7000 µg/mL
Compound: CC(C)[C@H](C(=O)Nc1ccc(C(=O)NO)cc1)c1ccccc1 [AR-42, (S)—N-hydroxy-4-(3-methyl-2-phenylbutanamido)benzamide]
- Inhibitory effect in tumors ([5]; breast, prostate, ovarian, blood cell, liver, and brain tumors): demonstrated inhibitory effect
- Potency and activity compared to vorinostat (SAHA) ([5]; solid tumors and hematological malignancies): greater potency and activity

- XRPD Form c: form assigned after the stability studies [1, 7]: Form A
- XRPD Form b: form assigned after the stability studies ([1]; 48-72 H, Table 5): Form D2 + Am*
- XRPD Form c: form assigned after the stability studies [1, 10]: Form A
- Concentration ([2]; Table 2, solvent Nitrobenzene): 19700 µg/mL
- XRPD Form b: form assigned after storage under ambient conditions [3, 9]: Form D1
- XRPD Form b: form assigned after storage under ambient conditions [3, 8]: Form D1
Compound: CC(C)[C@H](C(=O)Nc1ccc(C(=O)NO)cc1)c1ccccc1 [Form D1, (S)—N-hydroxy-4-(3-methyl-2-phenylbutanamido)benzamide]

- XRPD Form c: form assigned after the stability studies [1, 10]: Form A
- XRPD Form b: form assigned after storage under ambient conditions ([3]; 1-1.5 weeks ambient, cooling-evaporative crystallization, Table 7, label = form after recrystallization, slurry in cyclohexane/cyclohexanone): Form B1_wet**
- XRPD Form b: form assigned after storage under ambient conditions ([3]; 1-1.5 weeks ambient, cooling-evaporative crystallization, Table 7, label = form after recrystallization, slurry in cyclohexanone/tetrahydrofuran): Form R
Compound: CC(C)[C@H](C(=O)Nc1ccc(C(=O)NO)cc1)c1ccccc1 [Form A4, (S)—N-hydroxy-4-(3-methyl-2-phenylbutanamido)benzamide]

- XRPD Form c: form assigned after the stability studies [1, 10]: Form A
- XRPD Form b: form assigned after storage under ambient conditions [3, 9]: Form A8
Compound: CC(C)[C@H](C(=O)Nc1ccc(C(=O)NO)cc1)c1ccccc1 [Form A8, (S)—N-hydroxy-4-(3-methyl-2-phenylbutanamido)benzamide]

From patent US20140271604A1, “HDAC Inhibitor Polymorphic Forms and Methods of Use” (priority 2013, published 2014)
